Measured values from patent US20250059187A1, “COVALENTLY BINDING INHIBITORS OF G12S, G12D AND/OR G12E MUTANTS OF K-RAS GTPASE” (The Regents of the University of California, priority 2021, published 2025).

Legend:
[1] = test system: A549 cells (homozygous KRAS p.G12S mutation); assay: Immunoblot and Raf-RBD pulldown in A549 cells; format: cell-based; conditions: 10 μM, 2 h
Description: Cells were passed for at least two generations after cryorecovery before they were used for assays. All cell lines were tested mycoplasma negative using MycoAlert™ Mycoplasma Detection Kit (Lonza). When indicated, cells were treated with drugs at 40-60% confluency at a final DMSO concentration of 1%. At the end of treatment period, cells were placed on ice. Unless otherwise indicated, adherent cells were washed once with ice-cold PBS (1 mL), scraped with a spatula, and pelleted by centrifugation (500×g, 5 min). Suspension cells were pelleted by centrifugation (500×g, 5 min), washed with 1 mL ice-cold PBS, and pelleted again. Cells were lysed in RIPA buffer supplemented with protease and phosphatase inhibitors (cOmplete and phosSTOP, Roche) on ice for 10 min. For RBD pulldown experiments, cells were lysed in Co-IP Lysis Buffer in lieu of RIPA buffer. Lysates were clarified by high-speed centrifugation (19,000×g, 10 min). Concentrations of lysates were determined with protein BCA assay (Thermo Fisher) and adjusted to 2 mg/mL with additional RIPA buffer (or Co-IP Lysis Buffer). Samples were mixed with 5×SDS Loading Dye and heated at 95° C. for 5 min.
Ras·GTP pulldown was performed with GST-RBD agarose beads (Cytoskeleton, 10 μL, 30 μg loaded GST-RBD). 50 μL lysate (2 mg/mL) was mixed with 10 μL beads, and the suspension was incubated at 4° C. for 1 h with constant end-to-end rotation. The beads were settled by centrifugation (500×g, 5 min) and the supernatant was carefully removed. The beads were washed with 2×500 μL ice-cold Co-IP wash buffer. Bound protein was eluted with 10 μL 2×SDS Loading Buffer.
Membranes were blocked in 5% BSA-TBST for 1 h at 23° C. […] After washing the membrane three times with TBST (5 min each wash), secondary antibodies (goat anti-rabbit IgG-IRDye 800 and goat anti-mouse IgG-IRDye 680, Li-COR) were added as solutions in 5% skim milk-TBST at the dilutions recommended by the manufacturer. Secondary antibody binding was allowed to proceed for 1 h at 23° C. The membrane was washed three times with TBST (5 min each wash) and imaged on a Li-COR Odyssey fluorescence imager.

[2] = target: K-Ras(G12S) (Homo sapiens, UniProt P01116, G12S); assay: Covalent modification of recombinant K-Ras(G12S) by whole-protein mass spectrometry; format: binding; parameters: human K-Ras (G12S, aa 1-169); 6xHis tag + TEV cleavage site (N, cleaved yes); made in house; host or cells: E. coli BL21(DE3); conditions: 23° C.; for covalent reaction with K-Ras(G12S)·GDP: 10 μM compound; for % covalent modification of K-Ras G12S: 24-h incubation, 100 μM compound, pH 7.5
Description: (§1) Test compounds were prepared as 100× stock solutions in DMSO. K-Ras proteins were diluted with SEC Buffer (20 mM HEPES 7.5, 150 mM NaCl, 1 mM MgCl2) to 400 nM or 1 μM. In a typical reaction, 0.5 μL 100× compound stock was mixed with 50 μL diluted K-Ras protein, and the resulting mixture was incubated for the desired amount of time. The extent of modification was assessed by electrospray mass spectrometry using a Waters Xevo G2-XS system equipped with an Acquity UPLC BEH C4 1.7 μm column. […] For kinetic measurements, a 2× compound solution was first prepared in SEC Buffer, which was then mixed with 400 nM K-Ras(G12S) protein at 1:1 (v/v) ratio. Injection time stamps were used to calculate elapsed time.
as §1, with “K-Ras(G12D)” for “K-Ras(G12S)”

[3] = target: T1, wild type K-Ras (Homo sapiens, UniProt P01116); assay: Covalent modification of recombinant wild-type K-Ras by whole-protein mass spectrometry; format: binding; conditions: 24-h incubation, 100 μM compound, 23° C., pH 7.5
T1 construct: human K-Ras (wildtype, aa 1-169); 6xHis tag + TEV cleavage site (N, cleaved yes); made in house; host or cells: E. coli BL21(DE3)
Description: (§2) Test compounds were prepared as 100× stock solutions in DMSO. K-Ras proteins were diluted with SEC Buffer (20 mM HEPES 7.5, 150 mM NaCl, 1 mM MgCl2) to 400 nM or 1 μM. In a typical reaction, 0.5 μL 100× compound stock was mixed with 50 μL diluted K-Ras protein, and the resulting mixture was incubated for the desired amount of time. The extent of modification was assessed by electrospray mass spectrometry using a Waters Xevo G2-XS system equipped with an Acquity UPLC BEH C4 1.7 μm column. The mobile phase was a linear gradient of 5-95% acetonitrile/water+0.05% formic acid. For kinetic measurements, a 2× compound solution was first prepared in SEC Buffer, which was then mixed with 400 nM K-Ras(G12S) protein at 1:1 (v/v) ratio. Injection time stamps were used to calculate elapsed time.
as §2, with “K-Ras(G12D)” for “K-Ras(G12S)”

[4] = target: T1, wild type K-Ras; assay: Covalent modification of test protein after incubation with compound; format: binding; conditions: 24-h incubation with 100 μM compound at 23° C. at pH 7.5
[5] = target: T2, K-Ras G12D (Homo sapiens, UniProt P01116, G12D); assay: as above; format: binding; conditions: 24-h incubation with 100 μM compound at 23° C. at pH 7.5
T2 construct: human K-Ras (G12D, aa 1-169); 6xHis tag + TEV cleavage site (N, cleaved yes); made in house; host or cells: E. coli BL21(DE3)

[6] = target: T3, K-Ras G12E (Homo sapiens, UniProt P01116, G12E); assay: as above; format: binding; conditions: 24-h incubation with 100 μM compound at 23° C. at pH 7.5
T3 construct: human K-Ras (G12E, aa 1-169); 6xHis tag + TEV cleavage site (N, cleaved yes); made in house; host or cells: E. coli BL21(DE3)

[7] = target: T2, K-Ras G12D; assay: Covalent modification of recombinant K-Ras(G12D) by whole-protein mass spectrometry; format: binding
Description: as §2, with “K-Ras(G12D)” for “K-Ras(G12S)”

[8] = test system: BaF3/K-Ras(G12D) cells; assay: Growth inhibition of BaF3/K-Ras(G12D) cells; format: cell-based, murine; conditions: Mus musculus, 95% CI: 3.1-6.3 μM, read-out: IC50, BaF3/K-Ras(G12D) proliferation
Description: Cells were seeded into 96-well white flat bottom plates (1,000 cells/well) (Corning) and incubated overnight. Cells were treated with the indicated compounds in a nine-point threefold dilution series (100 μL final volume) and incubated for 72 h. Cell viability was assessed using a commercial CellTiter-Glo (CTG) luminescence-based assay (Promega). Briefly, the 96-well plates were equilibrated to room temperature before the addition of diluted CTG reagent […] (1:4 CTG reagent:PBS). Plates were placed on an orbital shaker for 30 min before recording luminescence using a Spark 20M (Tecan) plate reader.

[9] = Stability of substituted β-lactones in PBS 7.4 at 23° C.; format: physicochemical; conditions: PBS, pH 7.4, read-out: half-life (hydrolysis) (converted)
[10] = target: T2, K-Ras G12D; assay: Differential scanning fluorimetry of K-Ras(G12D) and its covalent adducts; format: binding
Description: The protein of interest was diluted with SEC Buffer [20 mM HEPES 7.5, 150 mM NaCl, 1 mM MgCl2] to 8 μM. This solution was dispensed into wells of a white 96-well PCR plate in triplicate (25 μL/well). Fluorescence was measured at 0.5-° C. temperature intervals every 30 s from 25° C. to 95° C. on a Bio-Rad CFX96 qPCR system using the FRET setting. Each data set was normalized to the highest fluorescence and the normalized fluorescence reading was plotted against temperature in GraphPad Prism 8.0. Tm values were determined as the temperature(s) corresponding to the maximum(ma) of the first derivative of the curve.

Compound | covalent reaction with K-Ras(G12S)·GDP [2] | % covalent modification of wild type K-Ras [3] [%] | % covalent modification of wild type K-Ras [4] [%] | % covalent modification of K-Ras G12D [5] [%] | % covalent modification of K-Ras G12E [6] [%] | % covalent modification of K-Ras G12S [2] [%] | thermal stabilization of K-Ras(G12D)·GDP ([10]; GDP state) | thermal stabilization of K-Ras(G12D)·GppNHp ([10]; GppNHp state) | effects on phospho-Akt, phospho-Erk and Ras·GTP levels [1] | reactivity with K-Ras(G12D)·GDP [7] | IC50 [8] [µM] | half-life [9] [h]
CN1CCC[C@H]1COc1nc2c(c(N3CC[C@H]4C(=O)O[C@H]4C3)n1)CCN(c1cccc3cccc(Cl)c13)C2 [3′] | enhanced reaction | – | – | – | – | – | – | – | neither adagrasib nor 3′ had any observable effects on these markers | – | – | –
O=C1O[C@H]2CN(c3nc(OCC45CCCN4CCC5)nc4c3CCN(c3cccc5cccc(Cl)c35)C4)CC[C@@H]12 [4′] | enhanced reaction | 0 | 0 | 0 | 0 | 100 | – | – | decreased the level of Ras·GTP | – | – | –
CC(C)[C@H]1C(=O)O[C@@H]1C(=O)N1[C@@H]2CC[C@H]1CN(c1nc(OCC34CCCN3CCC4)nc3c(F)c(-c4cccc5cccc(Cl)c45)ncc13)C2 [(2S, 3R)-4] | – | – | – | – | – | – | – | – | – | did not show any detectable reactivity | 4.4 | –
O=C1C[C@H](C(=O)N2[C@@H]3CC[C@H]2CN(c2nc(OCC45CCCN4CCC5)nc4c(F)c(-c5cccc6cccc(Cl)c56)ncc24)C3)O1 [Compound 2] | – | – | – | – | – | – | – | – | – | the R enantiomer was more reactive toward K-Ras(G12D)·GDP | – | 1.7
C[C@@H]1C(=O)O[C@H]1C(=O)N1[C@@H]2CC[C@H]1CN(c1nc(OCC34CCCN3CCC4)nc3c(F)c(-c4cccc5cccc(Cl)c45)ncc13)C2 [Compound 3] | – | – | – | – | – | – | – | – | – | – | – | 2.5
O=C1CC(C(=O)N2[C@@H]3CC[C@H]2CN(c2nc(OCC45CCCN4CCC5)nc4c(F)c(-c5cccc6cccc(Cl)c56)ncc24)C3)O1 (stereo partly drawn) [Compound 14-036] | – | 22.0 | 22.0 | 100 | 42.0 | 42.0 | – | – | – | – | – | –

Now from value to molecule, other results behind:

covalent reaction with K-Ras(G12S)·GDP [2] | % covalent modification of wild type K-Ras [3] [%] | % covalent modification of wild type K-Ras [4] [%] | % covalent modification of K-Ras G12D [5] [%] | % covalent modification of K-Ras G12E [6] [%] | % covalent modification of K-Ras G12S [2] [%] | thermal stabilization of K-Ras(G12D)·GDP ([10]; GDP state) | thermal stabilization of K-Ras(G12D)·GppNHp ([10]; GppNHp state) | Compound | effects on phospho-Akt, phospho-Erk and Ras·GTP levels [1] | reactivity with K-Ras(G12D)·GDP [7] | IC50 [8] [µM] | half-life [9] [h]
– | 0 | 0 | 0 | 0 | 0 | – | – | CN1CCC[C@@H]1COc1nc2c(c(N3CCC4(CC3)CN(S(=O)(=O)O)C4=O)n1)CCN(c1cccc3cccc(Cl)c13)C2 [Compound 12-087] | – | – | – | –
– | 73.7 | 73.7 | 75.7 | 72.6 | 72.1 | – | – | CN1CCC[C@@H]1COc1nc2c(c(N3CCC4(CC3)COC4=O)n1)CCN(c1cccc3cccc(Cl)c13)C2 [Compound 13-005] | – | – | – | –
– | 0 | 0 | 0 | 0 | 0 | – | – | CN1CCC[C@@H]1COc1nc2c(c(N3CCC4(CC3)CC(=O)O4)n1)CCN(c1cccc3cccc(Cl)c13)C2 [Compound 13-006] | – | – | – | –
– | 85.8 | 85.8 | 87.8 | 75.1 | 92.8 | – | – | O=C1OCC12CCN(c1nc(OCC34CCCN3CCC4)nc3c1CCN(c1cccc4cccc(Cl)c14)C3)CC2 [Compound 13-018] | – | – | – | –
– | 0 | 0 | 0 | 0 | 42.5 | – | – | O=C1OCC12CCN(c1nc(OCC34CCCN3CCC4)nc3c(F)c(-c4cccc5cccc(Cl)c45)ncc13)CC2 [Compound 13-037] | – | – | – | –
– | 0 | 0 | 100 | 38.0 | 100 | stabilized K-Ras(G12D)·GDP | stabilized K-Ras(G12D)·GppNHp | N#CC[C@H]1CN(c2nc(OCC34CCCN3CCC4)nc3c(F)c(-c4cccc5cccc(Cl)c45)ncc23)CCN1C(=O)C1CC(=O)O1 (stereo partly drawn) [Compound 14-005] | – | – | – | –
